Test results as given in PubChem BioAssay (NCI).
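Growth conditions: 96-well plates. Treatment: test compound, 48 hours, 5 concentrations. Analysis: linear interpolation between bracketing concentrations; unreached endpoints set to highest concentration. GI50 is the concentration that inhibits growth by half. TGI denotes the concentration required for complete inhibition of growth.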

Tests used:
Assay in all cases: NCI anticancer screen, dose series, 48 h
CAKI-1 renal = tested on: CAKI-1 renal
DU-145 prostate = tested on: DU-145 prostate
PC-3 prostate = tested on: PC-3 prostate
KM12 colon = tested on: KM12 colon
UO-31 renal = tested on: UO-31 renal
HCT-116 colon = tested on: HCT-116 colon
NCI-H226 lung = tested on: NCI-H226 lung
RPMI-8226 leukemia = tested on: RPMI-8226 leukemia
NCI-H23 lung = tested on: NCI-H23 lung
A498 renal = tested on: A498 renal

Structure (SMILES): COc1cc2cc(Oc3ccc(NC(=O)Nc4ccc(F)c(C(F)(F)F)c4)cc3)c(C)nc2cc1OCCN1CCCCC1
- GI50 (CAKI-1 renal): 1470 nM
- TGI (CAKI-1 renal): 2780 nM
- GI50 (DU-145 prostate): 1750 nM
- TGI (DU-145 prostate): 3200 nM
- GI50 (PC-3 prostate): 1450 nM
- TGI (PC-3 prostate): 3050 nM
- GI50 (KM12 colon): 1770 nM
- TGI (KM12 colon): 3300 nM
- GI50 (UO-31 renal): 1410 nM
- TGI (UO-31 renal): 2730 nM

Structure (SMILES): CCOC(=O)c1ncoc1[C@H]1COC(C)(C)O1
- TGI (CAKI-1 renal): > 100000 nM
- TGI (HCT-116 colon): > 100000 nM
- TGI (NCI-H226 lung): > 100000 nM
- TGI (UO-31 renal): > 100000 nM
- TGI (RPMI-8226 leukemia): > 100000 nM
- TGI (NCI-H23 lung): > 100000 nM

Structure (SMILES): COc1cc(C2CC(c3cccc(Nc4ccncc4)c3)=NN2c2cc(Cl)cc(Cl)c2)cc(OC)c1OC (stereo not given)
- GI50 (CAKI-1 renal): 1530 nM
- TGI (CAKI-1 renal): 2910 nM
- GI50 (DU-145 prostate): 1680 nM
- TGI (DU-145 prostate): 3080 nM
- GI50 (A498 renal): 1270 nM
- TGI (A498 renal): 4220 nM
- GI50 (PC-3 prostate): 1570 nM
- TGI (PC-3 prostate): 3140 nM
- GI50 (KM12 colon): 1650 nM
- TGI (KM12 colon): 3100 nM
- GI50 (UO-31 renal): 1440 nM
- TGI (UO-31 renal): 2790 nM
- GI50 (NCI-H23 lung): 1790 nM
- TGI (NCI-H23 lung): 3380 nM

Structure (SMILES): COc1ccc(/C=C2\CN(C(=O)CCN3CCC(=NO)CC3)C/C(=C\c3ccc(OC)cc3)C2=O)cc1
- GI50 (CAKI-1 renal): 1820 nM
- TGI (CAKI-1 renal): 3740 nM
- GI50 (DU-145 prostate): 1900 nM
- TGI (DU-145 prostate): 3670 nM
- GI50 (HCT-116 colon): 1740 nM
- TGI (HCT-116 colon): 3230 nM
- GI50 (A498 renal): 1600 nM
- TGI (A498 renal): 3200 nM
- GI50 (PC-3 prostate): 2000 nM
- TGI (PC-3 prostate): 4740 nM
- GI50 (KM12 colon): 1740 nM
- TGI (KM12 colon): 3710 nM
- GI50 (NCI-H226 lung): 2510 nM
- TGI (NCI-H226 lung): 7540 nM
- GI50 (UO-31 renal): 1590 nM
- TGI (UO-31 renal): 2940 nM
- GI50 (RPMI-8226 leukemia): 648 nM
- TGI (RPMI-8226 leukemia): 3790 nM
- GI50 (NCI-H23 lung): 2470 nM
- TGI (NCI-H23 lung): 6370 nM

Structure (SMILES): CC(=O)Oc1ccccc1[C@H]1CC(=O)C[C@H](c2ccccc2OC(C)=O)C12C(=O)c1ccccc1C2=O
- TGI (CAKI-1 renal): > 100000 nM
- TGI (DU-145 prostate): > 100000 nM
- TGI (HCT-116 colon): 88900 nM
- TGI (A498 renal): > 100000 nM
- TGI (PC-3 prostate): > 100000 nM
- TGI (KM12 colon): > 100000 nM
- TGI (NCI-H226 lung): 74000 nM
- TGI (UO-31 renal): > 100000 nM
- TGI (RPMI-8226 leukemia): > 100000 nM
- TGI (NCI-H23 lung): 90500 nM
